For this experiment, the target named is T1, dihydrofolate synthetase (DHFS) (Escherichia coli, UniProt P08192).
T1 sequence (P08192 1-422): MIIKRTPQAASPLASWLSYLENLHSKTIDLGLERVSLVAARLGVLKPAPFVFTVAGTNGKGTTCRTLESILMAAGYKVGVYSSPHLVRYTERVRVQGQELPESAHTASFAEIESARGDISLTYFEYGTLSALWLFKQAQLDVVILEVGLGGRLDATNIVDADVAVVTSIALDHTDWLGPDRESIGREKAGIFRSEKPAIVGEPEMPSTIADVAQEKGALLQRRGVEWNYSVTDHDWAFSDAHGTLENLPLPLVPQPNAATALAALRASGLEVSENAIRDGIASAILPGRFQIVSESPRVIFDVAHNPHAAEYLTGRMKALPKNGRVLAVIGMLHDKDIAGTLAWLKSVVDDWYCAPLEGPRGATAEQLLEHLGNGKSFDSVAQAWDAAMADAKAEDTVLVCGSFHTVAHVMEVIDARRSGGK
Put plainly: PK/LDH-coupled steady-state kinetics and LC-MS of product. Type of experiment: biochemical.

The structures appear in SMILES notation.

Regarding `Nc1nc2c(c(=O)[nH]1)NC(CNc1ccc(C(=O)N[C@@H](CCC(=O)O)C(=O)O)cc1)CN2` (stereo partly shown) [THF], the “PK/LDH-coupled steady-state kinetics and LC-MS of product” value is “we used fully reduced THF as the substrate and assay for poly glutamylation”.

These data come from article PMC12371491 (ACS Bio & Med Chem Au, 2025).
